# According to publication PMC6278829 (Anesthesiology, 2018):
# Target: α1β3γ2L GABAA receptors (Homo sapiens, UniProt P14867+P18507+P28472)
# Experiment: not given
# Assay type: cell-based
# Details: 100 μM drug; wild-type receptors; n = 6 oocytes; EC5 GABA alone 4.4 ± 1.2%; P = 0.002
# Chain of α1β3γ2L GABAA receptors (P14867 28-456): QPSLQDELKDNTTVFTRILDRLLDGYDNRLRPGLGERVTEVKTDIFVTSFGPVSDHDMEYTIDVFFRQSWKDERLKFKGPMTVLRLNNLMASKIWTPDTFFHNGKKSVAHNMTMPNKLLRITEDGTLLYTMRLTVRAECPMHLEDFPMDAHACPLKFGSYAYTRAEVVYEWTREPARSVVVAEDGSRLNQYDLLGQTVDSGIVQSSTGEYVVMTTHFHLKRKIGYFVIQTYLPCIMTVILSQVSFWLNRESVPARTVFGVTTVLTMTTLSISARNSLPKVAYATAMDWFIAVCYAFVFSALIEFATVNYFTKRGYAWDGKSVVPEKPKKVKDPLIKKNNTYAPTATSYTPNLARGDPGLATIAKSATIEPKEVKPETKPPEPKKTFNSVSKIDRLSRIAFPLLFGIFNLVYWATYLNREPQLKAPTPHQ
# Chain of α1β3γ2L GABAA receptors (P28472 26-473): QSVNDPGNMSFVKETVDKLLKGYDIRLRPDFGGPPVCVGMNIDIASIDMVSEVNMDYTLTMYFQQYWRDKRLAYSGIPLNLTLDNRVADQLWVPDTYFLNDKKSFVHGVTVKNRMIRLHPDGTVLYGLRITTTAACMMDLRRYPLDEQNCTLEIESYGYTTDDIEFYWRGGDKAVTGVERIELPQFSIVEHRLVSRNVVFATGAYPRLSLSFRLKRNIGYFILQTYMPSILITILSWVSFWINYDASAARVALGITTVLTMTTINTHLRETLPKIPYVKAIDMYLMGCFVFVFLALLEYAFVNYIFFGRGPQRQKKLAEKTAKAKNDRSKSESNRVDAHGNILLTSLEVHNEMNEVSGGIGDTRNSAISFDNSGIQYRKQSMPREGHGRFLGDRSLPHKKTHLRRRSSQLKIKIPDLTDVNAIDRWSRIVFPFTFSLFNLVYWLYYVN
# Chain of α1β3γ2L GABAA receptors (P18507 40-475): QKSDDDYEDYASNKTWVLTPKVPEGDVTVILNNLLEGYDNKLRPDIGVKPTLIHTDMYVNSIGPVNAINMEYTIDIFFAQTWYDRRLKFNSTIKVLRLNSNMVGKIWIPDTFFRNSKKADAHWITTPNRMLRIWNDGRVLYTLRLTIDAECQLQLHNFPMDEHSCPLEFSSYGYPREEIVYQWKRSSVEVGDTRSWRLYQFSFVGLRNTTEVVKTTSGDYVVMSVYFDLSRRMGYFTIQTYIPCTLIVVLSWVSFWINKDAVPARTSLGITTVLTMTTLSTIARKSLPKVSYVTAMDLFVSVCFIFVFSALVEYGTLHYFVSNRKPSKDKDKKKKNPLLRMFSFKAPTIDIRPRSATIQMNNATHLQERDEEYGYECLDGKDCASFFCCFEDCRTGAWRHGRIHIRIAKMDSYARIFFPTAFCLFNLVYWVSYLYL
row,Compound,Peak amplitude of EC5 GABA-evoked current with drug
1,CCOC(=O)c1cncn1C(C)c1cccc2ccccc12 (stereo not drawn) [Naphthalene-etomidate],10 ± 2.4 % of the current produced by 1 mM GABA

# Target: α1β3γ2L GABAA receptors (β+ – α− sites) (Homo sapiens, UniProt P14867+P18507+P28472)
# Sequence (P14867 28-456): as the sequence (P14867 28-456) above
# Sequence (P28472 26-473): as the sequence (P28472 26-473) above
# Sequence (P18507 40-475): as the sequence (P18507 40-475) above
# Experiment: Inhibition of ^3[H]azi-etomidate photoaffinity labeling of purified receptors
# Assay type: binding
# Details: read-out: IC50 for Inhibiting Photoaffinity Labeling by ^3[H]Azi-etomidate (95% CI); ~2 μM photolabel; 1 mM GABA (open/desensitized state)
row,Compound,IC50
1,CCOC(=O)c1cncn1[C@H](C)c1ccc(F)cc1 [p-Fluoro-etomidate],3.6 µM
2,CCOC(=O)c1cncn1[C@H](C)c1ccc(OC)cc1 [p-Methoxy-etomidate],75 µM
3,CCOC(=O)c1cncn1[C@H](C)c1cccc(OC(C)C)c1 [m-Isopropoxy-etomidate],210 µM
4,CCOC(=O)c1cncn1[C@H](C)c1ccc(Br)cc1 [p-Bromo-etomidate],8.1 µM
5,CCOC(=O)c1cncn1C(C)c1ccc2ccccc2c1 (stereo not drawn) [Naphthalene2-etomidate],77 µM
6,m-Dimethoxy-etomidate,830 µM

# System: GABAA receptor transmembrane anesthetic binding sites
# Experiment: not given
# Details: cited from earlier work
row,Compound,Selectivity of photolabel for its respective class of binding sites
1,C=CC[C@@]1(c2cccc(C3(C(F)(F)F)N=N3)c2)C(=O)NC(=O)N(C)C1=O,more than 50 fold
2,CC(c1ccccc1)n1cncc1C(=O)OCCC1(C)N=N1 (stereo not drawn) [^3[H]azi-etomidate],more than 50 fold
